Laboratory results: US20190015397A1, “SUBSTANCE THAT INHIBITS P2Y12 RECEPTOR, FOR USE IN THE PREVENTIVE TREATMENT OF SYSTEMIC SCLEROSIS IN PATIENTS WITH RAYNAUD'S PHENOMENON AND A DYSIMMUNITY” (UNIVERSITÉ DE BORDEAUX, priority 2016, published 2019)
“Also recorded” adds a separate entry of the source.

How the values were obtained:
[1] = test system: human normal microvascular endothelial cells; experiment: TSLP secretion by endothelial cells co-incubated with platelets from patients treated by P2Y12 inhibitors; format: cell-based; settings: clopidogrel 75 mg or ticagrelor 90 mg per day; platelets:EC 200:1, 24 hrs, ELISA
Protocol: FIG. 7: represents TSLP secretion (in pg/ml: A, or in %: B) by endothelial cells after stimulation by, from left to right, platelets from healthy donors (HD, n=6), patients treated by clopidogrel (n=3) or by ticagrelor (n=4). […] Supernatants were harvested and frozen before analysis. TSLP concentration was determined by ELISA.
Briefly, platelets purified from healthy normal subject, or non-sclerodermic patients treated with clopidogrel (75 mg par jour), or a non-sclerodermic patient treated with ticagrelor (90 mg par jour), for preventing atherothrombotic events, were co-incubated with human normal microvascular endothelial cells at a 200:1 ratio for 24 hrs. Cell culture supernatant was collected and TSLP content was measured using a dedicated commercial ELISA kit.

P2Y12 receptor = P2Y12 receptor (Homo sapiens, UniProt Q9H244); settings: cited from earlier work
[2] = test system: human dermal microvascular endothelial cells (HDMEC); experiment: Platelet-induced TSLP production in platelet/EC co-culture with blocking antibodies; format: cell-based; settings: ADP-activated platelets
Protocol: (§1) (A) 70000 HDMEC were cultured for 24 hrs in 24-well culture plate in MV-2 complete medium along with increasing amount of purified non-activated platelets (white bars) or adenosine diphosphate-activated platelets (black bars) (from 10 to 200 platelets for 1 HDMEC). […] (B) HDMEC were stimulated with ADP-activated platelets with or without anti-IL1β blocking antibody. Condition “platelet-” is a comparison without platelets. […] (C) HDMEC were stimulated with increasing doses of serotonin (from 0 to 90 ng/ml). A Wilcoxon test was used. (*p=0.013). (D) HDMEC were stimulated with ADP-activated platelets (ratio HDMEC:platelets=1:200) with or without blocking anti-IL1β with or without 5HT-receptors (5HTR2a and 5HTR2b) blocking antibodies. […] Supernatants were harvested and TSLP content was measured using dedicated ELISA. Results are mean and SEM from 3 independent experiments.
(§2) TSLP levels in cell culture supernatants or serum was quantified using an ELISA kit from eBiosciences following the manufacturer's instruction.
(§3) Human dermal microvascular EC were cultured in complete MV2 growth medium in a 96 well-plates with flat bottom (20000 cells per well in 200 μl) and allowed to stand overnight before adding different reagents (IL-1β, IL-4, IL-13, TNF-α, IFN-γ, LPS, 5HT or Tryptase) or platelets ADP-activated or not for 24 h at 37° C. […]

[3] = test system: mice models of scleroderma; settings: two mice models of scleroderma; cited from earlier work
patients with SSc = settings: cited from earlier work
[4] = test system: healthy endothelial cells; experiment: TSLP production by healthy endothelial cells with platelets treated with acetylsalicylic acid; format: cell-based, human; settings: doses 0, 10 and 1000 pg/ml
From the text: FIG. 8: represents the in vitro TSLP production (pg/ml) by healthy endothelial cells in the presence of platelets from a first healthy non sclerodermic patient a second non sclerodermic patient previously treated with acetylsalicylic acid (aspirin, pg/ml) at a dose of 0, 10 and 1000 pg/ml.
The endothelial TSLP production is not inhibited by healthy patients platelets treated with acetylsalicylic acid (aspirin active metabolite) (see FIG. 8).

[5] = test system: human dermal microvascular endothelial cells (HDMEC); experiment: TSLP production by human dermal microvascular EC stimulated with cytokines/reagents (ELISA, RTqPCR); format: cell-based
Protocol: FIG. 4: IL1β-stimulated human dermal microvascular endothelial cells (HDMEC) produce TSLP. Normal HDMEC were purified from normal skin (plastic surgery) and stimulated 24 hrs with (A) cytokines potentially involved in SSc and the TLR4 agonist LPS or (B) increasing amount of IL1β (from 10 to 50 ng/ml) in complete MV-2 medium (M). Supernatants were harvested and TSLP content was measured by dedicated ELISA from eBioscience. Mean and SD from 3 (A) and 6 (B) independent experiments. (C) Quantification of TSLP mRNA from IL1β (50 ng/mL) activated HDMEC using RTqPCR, one representative experiment out of 3. *P<0.05 and ***P=0.0004 using Kruskal Wallis test.
as §1, §2, §3

human dermal fibroblasts = experiment: Pro-fibrotic mRNA profile of activated human dermal fibroblasts (RT-qPCR); format: cell-based; settings: for MMP-1 mRNA expression / collagen1A1 mRNA / collagen/collagenase ratio (COL1A1 on MMP-1 mRNA): HD dermal fibroblasts; for MMP-1 mRNA expression / collagen1A1 mRNA / collagen/collagenase ratio (COL1A1 on MMP-1 mRNA) / MCP-1 mRNA expression: 48 h; for MCP-1 mRNA expression: human dermal fibroblasts
Protocol: Human dermal fibroblasts were isolated from healthy skin and incubated 48 h with DMEM, IL1β, recombinant TSLP or TGFβ1. (A) Quantification of Col1A1 mRNA from activated fibroblasts using RT-qPCR from 3 different healthy donors was expressed in ΔΔCT with DMEM as the baseline condition. (B) Quantification of MMP-1 mRNA from activated fibroblasts using RTqPCR, results of 3 different healthy donors. (C) Ratio of COL1A1 on MMP-1 (collagenase) mRNA from activated normal fibroblasts using RT-qPCR, results of 3 different healthy donors (left panel) and 3 SSc patients (right panel). Among SSc patients, two patients were dcSSc and fibroblasts came from TSLP+ fibrotic skin (patients #1 and 2), the other was a IcSS and fibroblasts came from TSLP-low fibrotic skin (patient #3). (D) Quantification of MCP-1 from activated normal fibroblasts using RT-qPCR, results of 3 different donors. Kruskal Wallis test was used to compare the mean of mRNA expression levels. *P<0.05.
Fibroblasts were obtained from […] skin biopsy samples from 3 healthy donors as described elsewhere (Truchetet M E, Brembilla N C, Montanari E, et al. Interleukin-17A+ cell counts are increased in systemic sclerosis skin and their number is inversely correlated with the extent of skin involvement. Arthritis Rheum 2013; 65:1347-1356 ([24])).
Total RNA was isolated from trypsinized fibroblasts with the NucleoSpin RNA II extraction system (Macherey-Nagel, Duren, Germany) and cDNA synthesized from […] of total RNA using random hexamers and Superscript III reverse transcriptase (Invitrogen, Carlsbad, Calif.) according to manufacturer's instructions. Gene expression was quantified using SYBR green performed on a SDS 7900 HT instrument (Applied Biosystems). Specific primer pairs for each gene described in supplementary material (Datta A, Alexander R, Sulikowski M G, et al. Evidence for a functional thymic stromal lymphopoietin signaling axis in fibrotic lung disease. J Immunol 2013; 191:4867-4879 ([25]); Brembilla N C, Montanari E, Truchetet M E, et al. Th17 cells favor inflammatory responses while inhibiting type I collagen deposition by dermal fibroblasts: differential effects in healthy and systemic sclerosis fibroblasts. Arthritis Res Ther 2013; 15:R151 ([26]); Yoda A, Yoda Y, Chiaretti S, et al. Functional screening identifies CRLF2 in precursor B-cell acute lymphoblastic leukemia. Proc Natl Acad Sci USA 2010; 107:252-257 ([27]); Le Q T, Gomez G, Zhao W, et al. Processing of human protryptase in mast cells involves cathepsins L, B, and C. J Immunol 2011; 187:1912-1918 ([28])). Each reaction was performed in triplicates. […] Oligonucleotides were obtained from Sigma-Aldrich. Differences were calculated with the threshold cycle (Ct) and the comparative Ct method for relative quantification.

Sequence of P2Y12 receptor (Q9H244 whole entry): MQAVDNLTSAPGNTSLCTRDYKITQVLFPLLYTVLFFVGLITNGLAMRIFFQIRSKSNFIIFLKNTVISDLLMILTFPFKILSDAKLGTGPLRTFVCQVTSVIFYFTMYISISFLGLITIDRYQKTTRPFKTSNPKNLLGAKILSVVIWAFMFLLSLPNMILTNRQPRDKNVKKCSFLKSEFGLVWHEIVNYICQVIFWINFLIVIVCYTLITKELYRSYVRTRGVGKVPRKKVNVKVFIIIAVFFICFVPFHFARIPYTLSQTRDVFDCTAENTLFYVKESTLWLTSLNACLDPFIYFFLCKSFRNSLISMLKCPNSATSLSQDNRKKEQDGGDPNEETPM

CCCSc1nc(N[C@@H]2C[C@H]2c2ccc(F)c(F)c2)c2nnn([C@@H]3C[C@H](OCCO)C(O)C3O)c2n1 (stereo partly drawn) [ticagrelor]
TSLP production by endothelial cells induced by platelets of treated patients [1]: failed to induce TSLP production

CCCSc1nc(N[C@@H]2C[C@H]2c2ccc(F)c(F)c2)c2nnn([C@@H]3C[C@H](O)[C@@H](O)[C@H]3O)c2n1 [AR-C124910XX]
potency of active metabolite relative to ticagrelor (P2Y12 receptor): approximately equipotent

canakinumab: monoclonal antibody blocking IL-1β
platelet-induced TSLP production ([2]; FIG. 5B, blocking antibody 10 μg/mL, vs 64.8±3.9 pg/ml without antibody): 20.9 ± 3.7 pg/mL | TSLP production in platelet/EC co-culture ([2]; HDMEC:platelets=1:200, FIG. 5D, vs 649±13.8 pg/ml in platelet/EC): 335.1 ± 28.5 pg/mL

COC(=O)[C@H](c1ccccc1Cl)N1CCc2sccc2C1 [clopidogrel]
TSLP production by endothelial cells induced by platelets of treated patients [1]: failed to induce TSLP production; also recorded: can block the pro-fibrotic TSLP molecule expression | dermal thickness (bleomycin-injected mice; clopidogrel 25 mg/kg/d per os from 15 days before bleomycin 30 μg/mice s.c.): reduces the dermal thickness | skin fibrotic effect of Bleomycin (bleomycin-injected mice; clopidogrel pre-treatment 25 mg/kg/d per os): significantly reduces | development of digital ulcers (bleomycin-injected mice; preventive treatment of mice before the establishment of fibrosis): not associated with development of digital ulcers | fibrosis [3]: reduces fibrosis | markers of endothelial function and new digital ulcers (patients with SSc): may worsen markers of endothelial function and associate with development of new digital ulcers

CC(=O)Oc1ccccc1C(=O)O [acetylsalicylic acid]
endothelial TSLP production with acetylsalicylic acid-treated platelets [4]: not inhibited | endothelial TSLP production with acetylsalicylic acid-treated platelets ([4]; listed as aspirin): not observed

NCCc1c[nH]c2ccc(O)cc12 [serotonin, reference compound]
TSLP production by dermal microvascular EC ([5]; serotonin at 90 ng/ml, vs 0.75±0.5 pg/ml for EC alone): 58.9 ± 11.4 pg/mL

rTSLP: recombinant Thymic Stromal Lymphopoietin
MMP-1 mRNA expression (human dermal fibroblasts): 0.59±0.06 fold increase vs medium condition | collagen1A1 mRNA (human dermal fibroblasts): 1.5±0.06 fold increase vs medium condition | collagen/collagenase ratio (COL1A1 on MMP-1 mRNA) (human dermal fibroblasts): 2.6±0.3 fold increase vs medium condition | collagen/collagenase ratio in SSc fibroblasts (human dermal fibroblasts; fibroblasts from TSLP+ fibrotic skin of two dcSSc patients, compared to lcSSc patient or normal fibroblasts): lower collagen/collagenase ratio | MCP-1 mRNA expression (human dermal fibroblasts): 0.48±0.02 fold increase vs medium condition

IL1β: pro-inflammatory cytokine used as stimulus
TSLP production by dermal microvascular EC (protein) ([5]; IL1β stimulation 24 hrs, vs 7.4±3.5 pg/ml with dermal microvascular EC alone): 651.7 ± 95.4 pg/mL | TSLP expression at the transcriptomic level ([5]; RTqPCR, IL1β 50 ng/mL): increase the expression of TSLP | MMP-1 mRNA expression (human dermal fibroblasts): 5.7±1.7 fold increase vs medium condition | collagen1A1 mRNA (human dermal fibroblasts): 1.7±0.4 fold increase vs medium condition | collagen/collagenase ratio (COL1A1 on MMP-1 mRNA) (human dermal fibroblasts): 0.47±0.3 fold increase vs medium condition | MCP-1 mRNA expression (human dermal fibroblasts): 52.7±11.2 fold increase vs medium condition

TGFβ: cytokine used as control condition on fibroblasts
MMP-1 mRNA expression (human dermal fibroblasts): 0.56±0.14 fold increase vs medium condition | collagen1A1 mRNA (human dermal fibroblasts): 5.35±0.9 fold increase vs medium condition | MCP-1 mRNA expression (human dermal fibroblasts): 0.31±0.09 fold increase vs medium condition
